Reference: patent US20200268711A1, “Use Of Carbamate Compound For Reducing Or Treating Developmental Disorders Including Fragile X Syndrome, Angelman Syndrome Or Rett Syndrome” (SK BIOPHARMACEUTICALS CO., LTD., priority 2017, published 2020)

What was measured:
Format in all cases: in vivo
[1] = system: Fmr1 gene-deficient mouse; experiment: Audiogenic seizure test in Fmr1 gene-deficient mouse model; conditions: for Percent seized / Percent survival / Time to seizure occurrence / Time to respiratory arrest: 30 minutes before the test; for Time to seizure occurrence: 135 dB sound, 300 seconds if seizure does not occur; for Time to respiratory arrest: 300 seconds if mouse survives without respiratory arrest; for Median seizure score (seizure intensity level): compared to the vehicle administration group, score 0-5
Experimental: Male FVB.129P2-Pde6b^+ Tyr^c-ch Fmr1^tm1Cgr/J gene-deficient mice were purchased from Jackson Laboratories, and audiogenic seizure experiments were performed at 3 weeks of age. After purchase, the experimental animals were maintained under a controlled lighting environment (12 hours lighting/12 hours non-lighting) and maintained at a temperature of 20-23° C. and about 50% relative humidity. Food and water were provided ad libitum. Mice were randomly divided into groups. The test was carried out under lighting.
MPEP (2-methyl-6-(phenylethynyl)pyridine) HCl was used as a positive control, dissolved in sterile injectable saline, and administered intraperitoneally at a dose of 30 mg/kg. MPEP was prepared at a volume of 10 ml/kg and administered 30 minutes before the test.
Test Compound was dissolved in 30% PEG 300, and two doses of 10 mg/kg and 20 mg/kg were used, Test Compound was prepared at a volume of 10 ml/kg and administered intraperitoneally 30 minutes before the test. As a negative control, a vehicle (30% PEG 300) was administered.
Vehicle, MPEP or Test Compound was administered to mice of 21 days of age 30 minutes before the test. Mice were placed in a Plexiglas chamber for 15 seconds and exposed to 135 decibels (dB) of sound. During the test for 5 minutes, the mice were scored as following criteria based on the reaction of the mouse, the time required until the reaction and the intensity of the seizure.
1: Wild running and jumping
The following endpoints were measured and observed, and in the case of animals that had no reaction, the time to reaction was set to 300 seconds for convenience in analysis.
2. Time to respiratory arrest (300 seconds if mouse survives without respiratory arrest)
Data were analyzed by ANOVA, and if appropriate, Fisher PLSD post-hoc analysis was performed. The average seizure intensity was analyzed non-parametrically. The effect was defined as significant when p<0.05. Results are represented as mean values ±standard error.

[2] = system: Fmr1 gene-deficient mouse; experiment: Open field test (locomotor activity, rearing) in Fmr1 gene-deficient mouse model; conditions: 20 mg/kg i.p. once a day, day 4 of administration; 60 minutes; in comparison with the vehicle administration group
Experimental: (§1) Male FVB.129P2-Pde6b^+ Tyr^c-ch Fmr1^tm1Cgr/J gene-deficient mice were purchased from Jackson Laboratories. After purchase, the experimental animals were maintained under a controlled lighting environment (12 hours lighting/12 hours non-lighting) and maintained at a temperature of 20-23° C. and about 50% relative humidity. Food and water were provided ad libitum. Mice were randomly divided into groups. The drugs were administered once a day for 6 days at 8 weeks of age. The test was carried out under lighting.
(§2) Test Compound was dissolved in 30% PEG 300, and two doses of 10 mg/kg and 20 mg/kg were used. Test Compound was prepared at a volume of 10 ml/kg and administered intraperitoneally 30 minutes before the test.
1. Locomotor activity: Locomotor activity test was performed on day 4 of administration in the course of administering daily for 6 days in 8-week-old mice.
A Plexiglas square chamber (27.3×27.3×20.3 cm) surrounded by infrared rays was used to measure the horizontal and vertical movements. Mice were acclimatized to the laboratory for at least 1 hour before the test and then placed in the center of the chamber to measure activity in the open field for 1 hour. […] The distance was measured by the breakage of the horizontal light beam by the movement of the mouse. […]
The data were analyzed by ANOVA, and if appropriate, Fisher PLSD post-hoc analysis was performed using Statview software. […]

[3] = system: Fmr1 gene-deficient mouse; experiment: Fear conditioning test (contextual and cued) in Fmr1 gene-deficient mouse model; conditions: day 6; for Freezing during contextual fear conditioning test: in comparison with the vehicle administration group
Experimental: as §1, §2
2. Fear conditioning test: On day 5 and day 6 of administration, and 30 minutes after administration, training and drug efficacy tests were carried out, respectively. The test was performed using a fear conditioning system manufactured by Coulbourn Instruments (PA, USA).
Training was done 30 minutes after administration on day 5 of administration. The mice were placed in a conditioning chamber and accustomed to the environment for 120 seconds, and then exposed to 6 kHz, 75 dB sound stimulus (conditioned stimulus) for 20 seconds. 30 seconds after the end of the conditioned stimulation, 0.5 mA electrostimulation shock (unconditioned stimulus) was applied to the mouse paws. Mice were left in the conditioning chamber for an additional 60 seconds and then returned to the original cage.
On the morning of day 6, 30 minutes after administration mice were placed in the same chamber as the previous day, and then trained for 5 minutes without shock or other obstructions in order to perform a drug efficacy test for contextual memory. On day 6, after 4 hours of the contextual conditioning test, a drug efficacy test was performed on cued memory by stimulus signals. The mice were exposed to a new environment for 2 minutes (before the stimulation signal), and conditions and stimulation were applied three times in total for 20 seconds. Freezing behavior was defined as the complete loss of movement and was captured using a video system and FreezeView software (Coulbourn Instrument Penn., USA). The chamber was cleaned with 70% ethanol with each mouse change.
The data were analyzed by ANOVA, and if appropriate, Fisher PLSD post-hoc analysis was performed using Statview software. The effect was defined as significant when p<0.05. Results are represented as mean values ±standard error.

[4] = 20 mg/kg i.p. once a day, compared with the vehicle administration group

NC(=O)O[C@@H](Cn1ncnn1)c1ccccc1Cl [Test Compound, Carbamic acid (R)-1-(2-chlorophenyl)-2-tetrazol-2-yl-ethyl ester]
Percent seized ([1]; 10 mg/kg i.p.): No seizures occurred
Percent survival ([1]; 10 mg/kg i.p.): 100%
Time to seizure occurrence ([1]; 10 mg/kg i.p.): 300 s
Time to respiratory arrest ([1]; 10 mg/kg i.p.): 300 s
Median seizure score (seizure intensity level) ([1]; 10 mg/kg i.p.): significantly reduced
Percent seized ([1]; 20 mg/kg i.p.): No seizures occurred
Percent survival ([1]; 20 mg/kg i.p.): 100%
Time to seizure occurrence ([1]; 20 mg/kg i.p.): 300 s
Time to respiratory arrest ([1]; 20 mg/kg i.p.): 300 s
Median seizure score (seizure intensity level) ([1]; 20 mg/kg i.p.): significantly reduced
Locomotor activity (total distance traveled) [2]: significantly decreased
Rearing activity [2]: decreased
Rate of freezing in cue test, while the stimulus signal was given ([3]; 10 mg/kg i.p. once a day, compared with the vehicle administration group): significantly increased
Freezing during contextual fear conditioning test ([3]; 10 mg/kg i.p. once a day): significantly increased
Freezing in cue test, after the stimulus signal [3, 4]: significant increase
Rate of freezing in cue test, while the stimulus signal was given [3, 4]: significantly increased
Freezing during contextual fear conditioning test ([3]; 20 mg/kg i.p. once a day): significantly increased

Cc1cccc(C#Cc2ccccc2)n1 [MPEP, 2-methyl-6-(phenylethynyl)pyridine, reference compound]
Percent seized ([1]; 30 mg/kg i.p.): No seizures occurred
Percent survival ([1]; 30 mg/kg i.p.): 100%
Time to seizure occurrence ([1]; 30 mg/kg i.p.): 300 s
Time to respiratory arrest ([1]; 30 mg/kg i.p.): 300 s
Median seizure score (seizure intensity level) ([1]; 30 mg/kg i.p.): significantly reduced
